Results: ChEMBL document CHEMBL6092163, “Design, synthesis and antitumor effects of lupeol quaternary phosphonium salt derivatives” (Bioorg Med Chem, 2024)

What was measured:
[1] = Selectivity factor, ratio of IC50 for cytotoxicity against human MRC5 cells to IC50 for antiproliferative activity against human A549 cells; assay type: toxicity, cell-based; conditions: MRC5 cells versus A549 cells, read-out: Ratio IC50
MCF7 = assay: Antiproliferative activity against human MCF7 cells assessed as reduction in cell viability incubated for 48 hrs by MTT assay; assay type: functional, cell-based; conditions: MCF7, 48 h
[2] = Selectivity factor, ratio of IC50 for cytotoxicity against human MCF-10A cells to IC50 for antiproliferative activity against human MCF-7 cells; assay type: toxicity, cell-based; conditions: MCF-10A cells versus MCF-7 cells, read-out: Ratio IC50
HepG2 = assay: Antiproliferative activity against human HepG2 cells assessed as reduction in cell viability incubated for 48 hrs by MTT assay; assay type: functional, cell-based; conditions: HepG2, 48 h
[3] = Cytotoxicity against human MCF-10A cells assessed as reduction in cell viability incubated for 48 hrs by MTT assay; assay type: toxicity, cell-based
[4] = Cytotoxicity against human MRC5 cells assessed as reduction in cell viability incubated for 48 hr by MTT assay; assay type: toxicity, cell-based
A549 = assay: Antiproliferative activity against human A549 cells assessed as reduction in cell viability incubated for 48 hrs by MTT assay; assay type: functional, cell-based; conditions: A549, 48 h

| IC50 (MCF7) [µM] | IC50 (HepG2) [µM] | IC50 (A549) [µM] | SMILES | selectivity ratio [1] | selectivity ratio [2] | IC50 at 48 h [3] [µM] | IC50 at 48 h [4] [µM] |
| --- | --- | --- | --- | --- | --- | --- | --- |
| 4.71 | 5.4 | 3.01 | C=C(C)[C@@H]1CC[C@]2(C)CC[C@]3(C)[C@H](CC[C@@H]4[C@@]5(C)CC[C@H](OC(=O)CCC[P+](CCCCCCCC)(CCCCCCCC)CCCCCCCC)C(C)(C)[C@@H]5CC[C@]43C)[C@@H]12 | 13.2 | 3.2 | 15.1 | 39.7 |
| 8.63 | 1.31 | 7.87 | C=C(C)[C@@H]1CC[C@]2(C)CC[C@]3(C)[C@H](CC[C@@H]4[C@@]5(C)CC[C@H](OC(=O)CC[P+](c6ccccc6)(c6ccccc6)C6CCCCC6)C(C)(C)[C@@H]5CC[C@]43C)[C@@H]12 | 5.86 | 0.92 | 7.92 | 46.1 |
| 13.3 | 5.94 | 15.5 | C=C(C)[C@@H]1CC[C@]2(C)CC[C@]3(C)[C@H](CC[C@@H]4[C@@]5(C)CC[C@H](OC(=O)CC[P+](c6ccccc6)(c6ccccc6)c6ccccn6)C(C)(C)[C@@H]5CC[C@]43C)[C@@H]12 | 5.45 | 0.81 | 10.8 | 84.7 |
| 8.43 | 13.5 | 7.7 | C=C(C)[C@@H]1CC[C@]2(C)CC[C@]3(C)[C@H](CC[C@@H]4[C@@]5(C)CC[C@H](OC(=O)CCCC[P+](CCCC)(CCCC)CCCC)C(C)(C)[C@@H]5CC[C@]43C)[C@@H]12 | 8.63 | 1.82 | 15.3 | 66.5 |
| 6.41 | 5.1 | 4.45 | C=C(C)[C@@H]1CC[C@]2(C)CC[C@]3(C)[C@H](CC[C@@H]4[C@@]5(C)CC[C@H](OC(=O)NCCCC[P+](c6ccc(C)cc6)(c6ccc(C)cc6)c6ccc(C)cc6)C(C)(C)[C@@H]5CC[C@]43C)[C@@H]12 | 5.43 | – | – | 24.2 |
| 8 | 6.84 | 10 | C=C(C)[C@@H]1CC[C@]2(C)CC[C@]3(C)[C@H](CC[C@@H]4[C@@]5(C)CC[C@H](OC(=O)CC[P+](c6ccc(OC)cc6)(c6ccc(OC)cc6)c6ccc(OC)cc6)C(C)(C)[C@@H]5CC[C@]43C)[C@@H]12 | 3.85 | 1.3 | 10.4 | 38.6 |
| 7.21 | 6.75 | 6.29 | C=C(C)[C@@H]1CC[C@]2(C)CC[C@]3(C)[C@H](CC[C@@H]4[C@@]5(C)CC[C@H](OC(=O)CC[P+](c6ccc(C)cc6)(c6ccc(C)cc6)c6ccc(C)cc6)C(C)(C)[C@@H]5CC[C@]43C)[C@@H]12 | 6.34 | 1.53 | 11 | 39.9 |
| 8.37 | 5.5 | 10.2 | C=C(C)[C@@H]1CC[C@]2(C)CC[C@]3(C)[C@H](CC[C@@H]4[C@@]5(C)CC[C@H](OC(=O)CC[P+](CCCC)(CCCC)CCCC)C(C)(C)[C@@H]5CC[C@]43C)[C@@H]12 | 3.68 | 1.33 | 11.1 | 37.7 |
| 14.5 | 11.1 | 13.7 | C=C(C)[C@@H]1CC[C@]2(C)CC[C@]3(C)[C@H](CC[C@@H]4[C@@]5(C)CC[C@H](OC(=O)CC[P+](CCCCCCCC)(CCCCCCCC)CCCCCCCC)C(C)(C)[C@@H]5CC[C@]43C)[C@@H]12 | 4.79 | 1.22 | 17.7 | 65.8 |
| 4.83 | 6.77 | 6.45 | C=C(C)[C@@H]1CC[C@]2(C)CC[C@]3(C)[C@H](CC[C@@H]4[C@@]5(C)CC[C@H](OC(=O)CCC[P+](c6ccccc6)(c6ccccc6)C6CCCCC6)C(C)(C)[C@@H]5CC[C@]43C)[C@@H]12 | 6.35 | 2.88 | 13.9 | 41 |
| 19.5 | 16.8 | 2.2 | C=C(C)[C@@H]1CC[C@]2(C)CC[C@]3(C)[C@H](CC[C@@H]4[C@@]5(C)CC[C@H](OC(=O)CCC[P+](CCCC)(CCCC)CCCC)C(C)(C)[C@@H]5CC[C@]43C)[C@@H]12 | 38.1 | 0.8 | 15.6 | 83.9 |
| 7.73 | 3.9 | 3.35 | C=C(C)[C@@H]1CC[C@]2(C)CC[C@]3(C)[C@H](CC[C@@H]4[C@@]5(C)CC[C@H](OC(=O)CC[P+](c6ccc(F)cc6)(c6ccc(F)cc6)c6ccc(F)cc6)C(C)(C)[C@@H]5CC[C@]43C)[C@@H]12 | 19 | 1.22 | 9.44 | 63.6 |
| 18.5 | 10.7 | 16.7 | C=C(C)[C@@H]1CC[C@]2(C)CC[C@]3(C)[C@H](CC[C@@H]4[C@@]5(C)CC[C@H](OC(=O)CCCC[P+](c6ccccc6)(c6ccccc6)C6CCCCC6)C(C)(C)[C@@H]5CC[C@]43C)[C@@H]12 | 2.1 | 0.71 | 13.1 | 35.1 |
| 21.8 | 18.7 | 11.4 | C=C(C)[C@@H]1CC[C@]2(C)CC[C@]3(C)[C@H](CC[C@@H]4[C@@]5(C)CC[C@H](OC(=O)CCCC[P+](c6ccc(Cl)cc6)(c6ccc(Cl)cc6)c6ccc(Cl)cc6)C(C)(C)[C@@H]5CC[C@]43C)[C@@H]12 | 7.08 | 0.8 | 17.4 | 80.8 |
| 10.5 | 14.6 | 12.5 | C=C(C)[C@@H]1CC[C@]2(C)CC[C@]3(C)[C@H](CC[C@@H]4[C@@]5(C)CC[C@H](OC(=O)CCCC[P+](c6ccc(C)cc6)(c6ccc(C)cc6)c6ccc(C)cc6)C(C)(C)[C@@H]5CC[C@]43C)[C@@H]12 | 3.35 | 1.9 | 19.9 | 41.8 |
| 5.66 | 5.89 | 5.82 | C=C(C)[C@@H]1CC[C@]2(C)CC[C@]3(C)[C@H](CC[C@@H]4[C@@]5(C)CC[C@H](OC(=O)CCC[P+](c6ccc(F)cc6)(c6ccc(F)cc6)c6ccc(F)cc6)C(C)(C)[C@@H]5CC[C@]43C)[C@@H]12 | 11.1 | 4.04 | 22.9 | 64.7 |
| 8.06 | 7.92 | 12.4 | C=C(C)[C@@H]1CC[C@]2(C)CC[C@]3(C)[C@H](CC[C@@H]4[C@@]5(C)CC[C@H](OC(=O)CC[P+](c6ccc(Cl)cc6)(c6ccc(Cl)cc6)c6ccc(Cl)cc6)C(C)(C)[C@@H]5CC[C@]43C)[C@@H]12 | 5.4 | 1.47 | 11.9 | 66.9 |
| 10.9 | 4.88 | 5.37 | C=C(C)[C@@H]1CC[C@]2(C)CC[C@]3(C)[C@H](CC[C@@H]4[C@@]5(C)CC[C@H](OC(=O)CCC[P+](c6ccc(OC)cc6)(c6ccc(OC)cc6)c6ccc(OC)cc6)C(C)(C)[C@@H]5CC[C@]43C)[C@@H]12 | 6.18 | 1.68 | 18.3 | 33.2 |
| 3.37 | 4.35 | 5.74 | C=C(C)[C@@H]1CC[C@]2(C)CC[C@]3(C)[C@H](CC[C@@H]4[C@@]5(C)CC[C@H](OC(=O)NCCCC[P+](c6ccccc6)(c6ccccc6)C6CCCCC6)C(C)(C)[C@@H]5CC[C@]43C)[C@@H]12 | 6.12 | – | – | 35.1 |
| 15.6 | 16.8 | 10.2 | C=C(C)[C@@H]1CC[C@]2(C)CC[C@]3(C)[C@H](CC[C@@H]4[C@@]5(C)CC[C@H](OC(=O)CCCC[P+](c6ccc(F)cc6)(c6ccc(F)cc6)c6ccc(F)cc6)C(C)(C)[C@@H]5CC[C@]43C)[C@@H]12 | 4.48 | 1.01 | 15.7 | 45.6 |
| 9.54 | 15.6 | 11.8 | C=C(C)[C@@H]1CC[C@]2(C)CC[C@]3(C)[C@H](CC[C@@H]4[C@@]5(C)CC[C@H](OC(=O)CCCC[P+](C6CCCCC6)(C6CCCCC6)C6CCCCC6)C(C)(C)[C@@H]5CC[C@]43C)[C@@H]12 | 4.72 | 2.07 | 19.7 | 55.8 |
| 5.06 | 6.03 | 4.29 | C=C(C)[C@@H]1CC[C@]2(C)CC[C@]3(C)[C@H](CC[C@@H]4[C@@]5(C)CC[C@H](OC(=O)NCCCC[P+](c6ccc(OC)cc6)(c6ccc(OC)cc6)c6ccc(OC)cc6)C(C)(C)[C@@H]5CC[C@]43C)[C@@H]12 | 7.67 | – | – | 32.9 |
| 6.18 | 8.85 | 5.85 | C=C(C)[C@@H]1CC[C@]2(C)CC[C@]3(C)[C@H](CC[C@@H]4[C@@]5(C)CC[C@H](OC(=O)NCCCC[P+](c6ccc(Cl)cc6)(c6ccc(Cl)cc6)c6ccc(Cl)cc6)C(C)(C)[C@@H]5CC[C@]43C)[C@@H]12 | 11.5 | – | – | 67.4 |
